From US20120114706A1, “Endorphin Therapy Compositions and Methods of Use Thereof” (priority 2008, published 2012)
“Also recorded” adds a separate entry of the source.

Assays:
Format in all cases: in vivo, rat
MADB106 cells [1] = assay: Pharmacologic modification of autonomic influence on immune system and lung metastasis
Procedure: 48 β-EP implanted (SC) male Fischer rats and 48 control (C) male Fischer rats were divided into 8 groups, treated with saline, Naloxone (10 mg/kg body weight), Metaproterenol (MP, 0.8 mg/kg body weight), or Methyllycaconitine (MLA, 2.5 mg/kg body weight), respectively. Animals were treated with drugs for 8 days. In the second day of drug injection, animals were inoculated with MADB106 cells (100,000/0.2 ml/rat). 24 hours after tumor cell inoculation, blood was collected by orbital puncture. Plasma was collected, and PBMCs were separated for migration assay and NK cytolytic assay. 7 days after tumor inoculation, blood was taken again by orbital puncture. Plasma was collected, and PBMCs were separated for migration assay and T cell cytolytic assay. After 6 weeks, animals were sacrificed, and brains, spleens and blood were frozen. Lungs were fixed in formalin and processed to H&E staining. […] However, 7 days after tumor inoculation, there isn't a clear pattern of T cell cytolytic activity and macrophage migration activity between groups (FIGS. 30B and 30D).
It was hypothesized that the beneficial effect of BEP neuron transplants on immune function is regulated through autonomic nervous system, and that central BEP modulate peripheral immune function by inhibiting the sympathetic activity and activating the parasympathetic activity. Metaproterenol (MET) is an agonist for β-receptors, which are a class of G protein-coupled receptors that are targets of the catecholamines, especially norepinephrine and epinephrine (Dokur et al. (2004) J Neuroimmunol 5:148-57; Page et al. (2008) J Neuroimmunol 193:113-9). Methyllycaconitine (MLA) is a selective antagonist of α7 nicotine acetylcholine receptor (α7 nAChR; Wu et al. (2011) Clin Cancer Res 17:3533-41). By injecting MET and MLA i.p., the stimulation of sympathetic nerves and inhibition of parasympathetic nerves was mimicked. Naloxone, an opiate receptor antagonist, was used to test whether BEP neuronal effects is acted via opiodergic receptor (Boyadjieva et al. (2006) Alcohol Clin Exp Res 30:1761-7). Forty-eight BEP neuron-transplanted Fischer rats and 48 control rats were divided into 8 groups and treated with saline, naloxone (10 mg/kg body weight), MET (0.8 mg/kg body weight), or MLA (2.5 mg/kg body weight) for 8 days (the doses used for these drugs are recognized as effective biological doses). A day after the first injection of these agents, animals were inoculated with MADB106 cells (100,000/0.2 mL/rat). Twenty-four hours after tumor cell inoculation, blood was collected by orbital puncture. Plasma was collected, and peripheral blood mononuclear cells (PBMC) were separated for migration assay and NK cytolytic assay. These animals continued receiving the blocker treatments for 7 days. After 4 weeks they were sacrificed, their lungs were fixed in formalin and processed to H&E staining for determination of cancer pathology. Brain tissues were processed for verification of the site and viability of BEP cell transplantation.

MADB106 cells [2] = assay: MADB106 lung metastasis / lung tumor retention; settings: naloxone 1 mg/kg every 12 hours, 3 times
Procedure: A method for lung metastasis was adapted using MADB106 breast cancer cells, a NK-sensitive cell line widely used for lung metastasis study. Animals were anesthetized, and 100,000/0.2 ml/rat of MADB106 cells suspended in media were inoculated into jugular vein. After 4˜6 weeks, 70˜80% of inoculated animals developed tumor at the position of lung and/or neck, where the tumor cells were inoculated into the jugular vein.
30 female Fischer rats were implanted with control, cAMP (10 μM) or cAMP (5 μM)+PACAP (5 μM) nanospheres into 3rd ventricle. 2 weeks later, half of the animals were randomly assigned to treatment with Naloxone (1 mg/kg body every 12 hours) for 3 times. After the second injection of Naloxone, animals were anesthetized and inoculated with 100,000/0.2 ml/rat MADB106 cells. 2 months later, animals were sacrificed, and lungs were fixed and sectioned for histology diagnosis.
MADB106 cells, a Fischer 344 rat mammary adenocarcinoma cell line maintained in DMEM containing 10% fetal calf serum, was used. Female Fischer-344 rats were transplanted with BEP cell transplants or control cell transplants at 50 days of age. After about 2 weeks, these PVN cell-transplanted rats were inoculated with MADB106 tumor cells (100,000 cells/0.2 mL/rat) into jugular vein under sodium Nembutal solution (50 mg/kg) anesthesia. […]

[3] = Plasma corticosterone after nanosphere implantation; settings: naloxone 1 mg/kg i.p., 12 hours
Procedure: 2 weeks later, half of the animals were i.p. injected with naloxone (1 mg/kg body weight), which is aμ-opioid receptor antagonist, specifically blocking the effect of β-EP. 12 hours later, animals were anesthetized with Nembutal, and blood was drawn from jugular vein. Plasma corticosterone level was measured with ELISA.
2 months later, animals were anesthetized, and 1 ml of blood was drawn from jugular vein.

[4] = 24 hours after MADB106 inoculation, naloxone 10, MP/MET 0.8, MLA 2.5 mg/kg or saline

Question: For `C=CCN1CC[C@]23c4c5ccc(O)c4O[C@H]2C(=O)CC[C@@]3(O)[C@H]1C5` [naloxone], which “PBMC NK cell activity” value (MADB106 cells [1]; [4]) is on record?
Answer: Its value is “moderate or strong inhibitory effect”.

Question: What about the macrophage migration activity (MADB106 cells [1]; [4]) of the same molecule?
Answer: The macrophage migration activity was “moderate or strong inhibitory effect”.

Question: And the “effect on β-EP elimination of tumor cell lung retention” value (MADB106 cells [1]; β-EP transplanted Fischer rats, naloxone 10, MP/MET 0.8, MLA 2.5 mg/kg for 8 days)?
Answer: Its value is “stopped the effect of β-EP; also recorded: prevented, at various degrees”.

Question: What about the “effect on nanosphere-reduced lung tumor retention” value (MADB106 cells [2]) of the same molecule?
Answer: The value was “reversed the effect of nanosphere”.

Question: What about the “effect on nanosphere-lowered plasma corticosterone” value [3] of the same molecule?
Answer: The value was “blocked the effect of nanospheres”.
